Values joined by “and” are separate entries in the source; they are usually repeats but may differ in a detail not shown here. Equal values may be shown once.
Test: Pharmacokinetic study: compound concentration in MDA-MB-468 xenograft tumor tissue
Type: in vivo, mouse
Details: for Tissue concentration: individual tumors
Procedure: Female athymic Nu/J nude mice, 6 weeks old were purchased from the Jackson Laboratory. Mice were housed in laminar air-flow cabinet under specific pathogen-free conditions. 5×10^6 MDA-MB-468 cells in 100 μl diluted BD Matrigel™ Basement Membrane Matrix (BD Bioscience, Matrix:PBS is 1:1) were injected subcutaneously in each flank of mouse. We detected tumors once every four days by fine calipers measurement. When tumor size reached 100 mm^3, mice were randomly grouped and treated with DMSO or 50 mg/kg PA99 compound. The stock solution of compound was 10 mg/ml, which formulated with 10% DMSO, 10% Tween-80 and 80% H2O. PA99 was injected into mouse by intraperitoneal injection ([…]) three times per week. Mouse weights and tumor volumes were measured twice/week. For the pharmacokinetic study, samples were collected after compound injection (30 mins, 1 h, 3 h, 6 h). Four tumor samples were collected at each time point for mass spectrometry analysis to determine the compound concentrations in tumor tissues.

## CN(c1ccc(-c2nc(C(=O)O)cc3c2[nH]c2cccc(F)c23)cc1)S(=O)(=O)c1ccccc1 [PA99, 5-fluoro-1-(4-(N-methylphenylsulfonamido)phenyl)-9H-pyrido[3,4-b]indole-3-carboxylic acid]
30 min after 50 mg/kg intraperitoneal injection
  Tissue concentration: 3910 ng/mL and 8.2 μM and 666 ng/mL and 1.4 μM (2×) and 670 ng/mL and 1010 ng/mL and 2.1 μM
1 hr after 50 mg/kg intraperitoneal injection
  Tissue concentration: 5780 ng/mL and 12.2 μM and 1790 ng/mL and 3.8 μM and 1230 ng/mL and 2.6 μM and 870 ng/mL and 1.8 μM
3 hr after 50 mg/kg intraperitoneal injection
  Tissue concentration: 1400 ng/mL and 2.9 μM and 1340 ng/mL and 2.8 μM and 392 ng/mL and 0.8 μM and 290 ng/mL and 0.6 μM
6 hr after 50 mg/kg intraperitoneal injection
  Tissue concentration: 419 ng/mL and 0.88 μM and 342 ng/mL and 0.72 μM and 1440 ng/mL and 3.0 μM and 913 ng/mL and 1.9 μM
female, athymic Nu/J nude, mouse, MDA-MB-468 xenograft tumor, intraperitoneal, 50 mg/kg, 30 min, average of four tumors
  concentration at 30 min: 1560 ng/mL and 3.3 µM
female, athymic Nu/J nude, mouse, MDA-MB-468 xenograft tumor, intraperitoneal, 50 mg/kg, 1 hr, average of four tumors
  concentration at 1 h: 2420 ng/mL and 5.1 µM
female, athymic Nu/J nude, mouse, MDA-MB-468 xenograft tumor, intraperitoneal, 50 mg/kg, 3 hr, average of four tumors
  concentration at 3 h: 856 ng/mL and 1.8 µM
female, athymic Nu/J nude, mouse, MDA-MB-468 xenograft tumor, intraperitoneal, 50 mg/kg, 6 hr, average of four tumors
  concentration at 6 h: 779 ng/mL and 1.6 µM
